Data set [1] deals with L1210 lymphoblastic leukemia cells. As to the kind of experiment: Inhibition of DNA synthesis (3H-thymidine incorporation) in L1210 cells in vitro. The class given is cell-based, Murine. The note with it: for IC50: read-out: concentration that inhibits DNA synthesis by 50% (IC50). The procedure:
FIG. 1 illustrates a comparison of the effects of four new tricyclic pyrone derivatives and CPT on DNA synthesis in L1210 cells in vitro. About 2.53×10^6 cells suspended in 0.5 ml of RPMI 1640 medium were incubated at 37° C. for 90 minutes in the presence or absence (control) of the indicated concentrations of drugs. The cells were then pulse-labeled for an additional 30 minutes to determine the rate of ^3H-thymidine incorporation into DNA. DNA synthesis in vehicle-treated control cells was 43,956±4,569 cpm (100±11%). The blank value (1,241±99 cpm) for cells pulse-labeled for 0 minutes with 1 μCi of ^3H-thymidine has been subtracted from the results. Bars: means±SD (n=3).
(§1) All solutions of tricyclic pyrone analogs were dissolved and diluted in 100% ethanol (ETOH), whereas CPT (Sigma Chemical Co., St. Louis, Mo.) solutions were prepared in 100% dimethyl sulfoxide (DMSO). Murine L1210 lymphoblastic leukemia cells, obtained from the American Type Culture Collection (Rockville, Md.), were maintained in continuous exponential growth by twice-a-week passage in RPMI 1640 medium supplemented with 7.5% fortified bovine calf serum (HyClone Laboratories, Inc., Logan, Utah). The cultures were incubated at 37° C. in a humidified atmosphere containing 5% CO2. All drugs were supplemented to the culture medium in 1- or 2 μl aliquots. The concentration of vehicle in the final incubation volume never exceeded 0.2-0.4%. […] Control cells incubated in the absence of drugs were similarly treated with vehicle only and, in every experiment, all incubates received the same volume of solvent.
For DNA synthesis, L1210 cells were resuspended in fresh serum-free RPMI 1640 medium at a density of about 2.5×10^6 cells/0.5 ml. The cells were incubated at 37° C. for 90 min in the presence or absence of drugs and then pulse-labeled for an additional 30 min with 1 μCi of [methyl-^3H]thymidine (51 Ci/mmol; Amersham Corp., Arlington Heights, Ill.). The incubations were terminated by the addition of 0.5 ml of 10% trichloroacetic acid (TCA). After holding on ice for 15 min, the acid-insoluble material was recovered over Whatman GF/A glass microfibre filters and washed thrice with 2 ml of 5% TCA and twice with 2 ml of 100% EtOH. After drying the filters, the radioactivity bound to the acid-precipitable material was determined by liquid scintillation counting in 10 ml of Bio-Safe NA (Research Products International Corp., Mount Prospect, Ill.).
(In general: Incorporation of labelled thymidine or its analogues reports DNA synthesis.)

In data set [2] the target is acetylcholinesterase (AChE) (UniProt O42275). The class given is biochemical, electric eel; fetal bovine serum. The following applies: read-out: AChE inhibition constant Ki ± std. error; 30° C., pH 8.0. The protocol:
Acetylcholinesterase Assay and Inhibition Kinetics: Tricyclic pyrones of this invention were tested for inhibition of AChE. […] Reactions were carried out at 30° C. in 0.1 M sodium phosphate buffer at pH 8.0 in the presence of […] and 3.3×10^−4 M 3-carboxy-4-nitrophenyl disulfide. Aliquots of incubating mixtures containing enzyme alone, or enzyme in the presence of each carbamate, were withdrawn at selected time intervals and assayed for enzyme activity in order to obtain kinetic data. From the kinetic data, inhibition and bimolecular rate constants were calculated by the equation: [formula]
in which kapp is the pseudo-first-order rate constant.

Data set [3] deals with MCF-7 human breast cancer cells. As to the kind of experiment: Growth of MCF-7 human breast cancer cells. The class given is cell-based.
The subject of data set [4] is EMT6 mammary carcinoma cells. As to the kind of experiment: Growth of EMT6 mammary carcinoma cells. It is filed as cell-based.
Data set [5] concerns T1, liver and intestinal microsomal ACAT.
T1 construct: other: 100 μM; other: 44 nM; other: 50 μM
As to the kind of experiment: Inhibition of liver and intestinal microsomal ACAT activity. It is filed as biochemical. The note with it: using literature IC50 of pyripyropene as standard. The procedure: . Microsomes were prepared from liver and intestinal mucosal scrapings by sequential centrifugation and in vitro ACAT activity assays were done according to the method of Billheimer (Billheimer, J. T. (1985), “Cholesterol acyltransferase,” In Methods in Enzymology 111:286-293). Briefly, 100 μg microsomal protein, 22 μg BSA, and 52 nmol cholesterol and the synthesized drug in 5 μL DMSO were preincubated for 30 minutes at 37° C. in a phosphate buffer (200 μL total volume). After 30 minutes, 1 nmol [^14C]oleoyl-CoA was added as substrate and incubated for an additional 20 minutes. The reaction was stopped with the addition of 1 mL ethanol and lipids were extracted with hexane. Cholesteryl [^14C]oleate formation was quantified by thin-layer chromatography and data are expressed as percent inhibition of ACAT activity (pmol/μg protein per minute) compared to a control sample incubated with no drug. All samples were run in duplicate. […]

Data set [6] deals with L1210 lymphoblastic leukemia cells. As to the kind of experiment: Inhibition of L1210 tumor cell growth in vitro (Coulter counter). It is filed as cell-based, Murine. The following applies: for reduction of L1210 cell numbers vs control: 6.25 μM; for inhibition at 50 µM: 3 and 4 days in culture, read-out: inhibition of L1210 cell growth (% reduction of control cell numbers). The procedure: Cells were plated at an initial density of 1×10^4 cells/0.5 ml/well in RPMI 1640 medium, containing 7.5% fortified bovine calf serum, and grown at 37° C. for 4 days in a humidified incubator in 5% CO2 in air. Cells were incubated in the presence or absence (^•, control) of 50 μM 3A (▪), 2D & 2E (□),3D & 3E (▴), 2B & 2C (Δ) 2A (♦), 3B & 3C (⋄), or 10 μM CPT (∘) and their density was monitored in triplicate every 24 h using a Coulter counter. Cells numbers are plotted on a logarithmic scale.
as §1
For tumor cell growth, L1210 cells were resuspended in fresh serum-containing RPMI 1640 medium, plated at an initial density of 1×10^4 cells/0.5 ml, and incubated in 48-well Costar cell culture plates (Costar, Cambridge, Mass.). Cells were grown for 4 days in the presence or absence of drugs and their density was monitored every 24 h using a Coulter counter (Coulter Electronics, Ltd., Luton Beds, England). Data of all in vitro experiments were analyzed using Student's t-test with the level of significance set at P<0.05.

Data set [7] concerns the target T2, tubulin protein from bovine brain (Bos taurus, UniProt P81947+Q6B856).
T2 construct: tubulin protein from bovine brain (2.5 mg/ml); purchased Cytoskeleton (Denver, Colo.); host or cells: bovine brain
As to the kind of experiment: Polymerization of pure tubulin in a cell-free system. It is filed as biochemical. The note with it: 25 μM, 35° C., 20 min, 2.5 mg/ml tubulin. The procedure: In a final volume of 200 μl, a solution of 2.5 mg/ml tubulin protein from bovine brain, 80 mM PIPES buffer, pH 6.8, 1 mM MgCl2, 1 mM EGTA, 1 mM GTP, and 10% glycerol was incubated at 35° C. for 20 minutes in the presence or absence (control) of 25 μM of compound 2A. The absorbance of the solution at OD340 nm was measured to determine the rate of tubulin polymerization.
Tubulin is a labile protein, which is unstable below 80 mM PIPES, should not be exposed to pH values less than 6.8 or greater than 7.0, and will not polymerize in the presence of Ca^2+. GTP and Mg^2+ are necessary for tubulin nativity and glycerol stabilizes tubulin and lowers the initial concentration required to initiate polymerization.
The ability of 2A to alter the polymerization of pure tubulin in a cell-free system in vitro was analyzed using the assay kit purchased from Cytoskeleton (Denver, Colo.). The polymerization reaction contained, in a final volume of 200 μl, tubulin protein from bovine brain (2.5 mg/ml), 80 mM PIPES buffer, pH 6.8, 1 mM MgCl2, 1 mM EGTA, 1 mM GTP and 10% glycerol. […] Samples were incubated at 35° C. in quartz microcells and the rate of tubulin polymerization was followed over 20 min by measuring the increased absorbance of the solution at OD340nm, using a Shimadzu UV-160 spectrophotometer equipped with dual-beam optics and a thermostatically-controlled cell holder. […]

In the next data set the test system is L1210 leukemic cells. As to the kind of experiment: Inhibition of other macromolecule synthesis (RNA and protein synthesis). The class given is cell-based.
[8] abbreviates: Mus musculus, L1210, 50 μM, 90 min + 30 min pulse.

This is an account of results in US6384045B1, “Tricyclic and tetracyclic pyrones” (Kansas State University Research Foundation, priority 1997, dated 2002).

“Also recorded” adds a separate entry of the source.

T2 sequence (P81947 whole entry): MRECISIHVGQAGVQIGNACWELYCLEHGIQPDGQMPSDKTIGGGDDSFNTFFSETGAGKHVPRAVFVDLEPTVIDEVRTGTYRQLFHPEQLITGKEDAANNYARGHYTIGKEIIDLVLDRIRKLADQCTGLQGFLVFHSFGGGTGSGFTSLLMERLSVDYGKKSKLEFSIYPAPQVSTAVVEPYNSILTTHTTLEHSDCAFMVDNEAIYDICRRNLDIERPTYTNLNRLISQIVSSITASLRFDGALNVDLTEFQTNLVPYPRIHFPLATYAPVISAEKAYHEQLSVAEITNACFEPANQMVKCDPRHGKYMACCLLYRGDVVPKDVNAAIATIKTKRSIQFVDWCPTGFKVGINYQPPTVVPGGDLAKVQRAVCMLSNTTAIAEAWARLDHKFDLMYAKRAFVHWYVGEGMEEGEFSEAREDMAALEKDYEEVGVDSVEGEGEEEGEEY
T2 sequence (Q6B856 whole entry): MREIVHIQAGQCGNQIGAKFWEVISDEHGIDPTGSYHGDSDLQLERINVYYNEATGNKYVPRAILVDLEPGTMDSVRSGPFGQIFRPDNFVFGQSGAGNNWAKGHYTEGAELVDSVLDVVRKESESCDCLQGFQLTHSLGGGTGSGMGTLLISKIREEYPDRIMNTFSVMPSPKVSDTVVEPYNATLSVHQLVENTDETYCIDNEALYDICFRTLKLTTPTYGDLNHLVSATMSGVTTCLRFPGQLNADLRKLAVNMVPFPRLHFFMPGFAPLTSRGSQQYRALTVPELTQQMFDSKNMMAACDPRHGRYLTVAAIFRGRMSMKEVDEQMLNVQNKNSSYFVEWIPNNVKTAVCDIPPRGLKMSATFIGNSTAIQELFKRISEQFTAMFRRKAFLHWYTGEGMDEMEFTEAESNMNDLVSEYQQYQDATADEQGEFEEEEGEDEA
acetylcholinesterase (AChE), sequence (O42275 whole entry): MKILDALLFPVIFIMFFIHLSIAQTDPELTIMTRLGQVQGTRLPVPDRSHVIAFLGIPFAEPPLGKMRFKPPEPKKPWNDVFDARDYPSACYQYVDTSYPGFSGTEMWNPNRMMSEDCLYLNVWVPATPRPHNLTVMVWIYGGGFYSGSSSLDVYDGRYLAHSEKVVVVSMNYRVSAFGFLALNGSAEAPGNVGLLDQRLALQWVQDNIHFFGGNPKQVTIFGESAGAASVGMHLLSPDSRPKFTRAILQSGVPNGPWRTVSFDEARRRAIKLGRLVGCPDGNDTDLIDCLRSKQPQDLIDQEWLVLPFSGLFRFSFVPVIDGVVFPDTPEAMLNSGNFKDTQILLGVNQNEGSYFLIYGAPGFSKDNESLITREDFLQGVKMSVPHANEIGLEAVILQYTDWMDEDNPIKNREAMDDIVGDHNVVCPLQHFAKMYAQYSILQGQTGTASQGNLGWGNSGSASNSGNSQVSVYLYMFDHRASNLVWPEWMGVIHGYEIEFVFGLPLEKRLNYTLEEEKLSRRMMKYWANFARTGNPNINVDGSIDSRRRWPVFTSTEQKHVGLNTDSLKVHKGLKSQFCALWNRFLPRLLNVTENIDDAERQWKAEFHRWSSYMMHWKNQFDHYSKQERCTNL

Turning to `Cc1cc2c(c(=O)o1)C=C1CCCCC1O2` (stereo not drawn) [Compound 1A, 3-methyl-1H-5a,6,7,8,9-pentahydro-1-oxopyrano[4,3-b]-[i]benzopyran], in data set [1] (setting [8]), the inhibition – broadly, the change of the read-out against control, counted positive when it falls – at 50 µM lay in the range of 17 to 32%. For the same compound, the Ki (usually a dissociation constant, usually derived from enzyme kinetics or from competition with a known ligand) in [2] turned out to be 7 ± 1.2 µM.
`O=c1oc(-c2cccnc2)cc2c1C=C1CCCCC1O2` (stereo not drawn) [Compound 2A, 3-(3-pyridyl)-1H-5a,6,7,8,9-pentahydro-1-oxopyrano[4,3-b][1]benzopyran]: the “inhibition of growth of MCF-7 human breast cancer cells” value in data set [3] was “greater inhibitory effect than tricyclic pyrone 3A”. Also, the inhibition at 50 µM fell in the range of 79 to 91% in [1] (setting [8]) and 91 to 100% in [6] (Mus musculus, L1210). Also, the IC50 was around 8.5 µM in data set [1] (Mus musculus, L1210 cells, 2 h); 50 µM in data set [5]; 11 µM in [6] (Mus musculus, L1210, 24 h, 1 day); 2 µM in data set [6] (Mus musculus, L1210, 48 h, 2 days); 1.1 µM in data set [6] (Mus musculus, L1210, 72 h, 3 days); 1.1 µM in [6] (Mus musculus, L1210, 96 h, 4 days). In addition, the “inhibition of growth of EMT6 mammary carcinoma cells” value in [4] was “greater inhibitory effect than tricyclic pyrone 3A”. Besides, the “inhibition of tumor cell growth” value in data set [6] (1.56 μM, after 24 h) is recorded as “no effect”. The “times less potent than CPT at inhibiting leukemic cell growth” value in data set [6] (6.25 μM 2A mimics 0.78 μM CPT over 4 days) was “about 8 times”. The “reduction of L1210 cell numbers vs control” value in [6] (1 day) is recorded as 28%; in data set [6] (2 days), 74%; in [6] (3 days), 90%; in [6] (4 days), 94%. The inhibition at 1.56 µM in [6] (Mus musculus, L1210, 1.56 μM, after 96 h) stood at 83%. Further, the “inhibition of tubulin polymerization (OD340nm)” value in data set [7] was “completely inhibit polymerization of pure tubulin; also recorded: completely inhibits tubulin polymerization; also recorded: no significant MT polymerization can be detected”.
Regarding `COc1ccc(-c2cc3c(c(=O)o2)C=C2CCCCC2O3)cc1OC` (stereo not drawn) [Compound 3A, 3-(3,4-dimethoxyphenyl)-1H-5a,6,7,8,9-pentahydro-1-oxopyrano[4,3-b][1]benzopyran], the IC50 in [1] (Mus musculus, L1210, 2 h) was around 8.5 µM; in [5] it was 63 µM. Further, the inhibition at 25 µM in data set [1] (Mus musculus, L1210, 25 μM, 90 min + 30 min pulse) amounted to 62%. The inhibition at 50 µM in data set [1] (setting [8]) is 79 to 91%; in [6] (Mus musculus, L1210), 91 to 100%. Besides, in data set [2], the Ki was determined as 23 ± 3.5 µM. The “inhibition of macromolecule synthesis (RNA and protein synthesis)” value in the data set with L1210 leukemic cells is “more potent inhibitor of macromolecule synthesis than the 3-pyridyl substituted tricyclic pyrone 2A”.
With `O=c1cc(O)cc(-c2cccnc2)o1` [Compound 5B, 4-hydroxy-6-(3-pyridyl)-2-pyrone], the melting point (commonly the temperature of the solid-liquid transition) lay in the range of 187 to 189 °C. The “inhibition of DNA synthesis in L1210 cells” value in [1] (25 μM, 90 min + 30 min pulse) is “no significant effects”. For the same compound, the “inhibition of DNA synthesis in L1210 cells” value in [1] (50 μM, 90 min + 30 min pulse, 50 µM) is listed as “no effect; also recorded: ineffective; also recorded: fail to inhibit DNA synthesis”.
